Assays:
[1] = Pharmacokinetic test in mice; type: in vivo, ICR mice; conditions: i.g. 5 mg/kg; for AUC(0-t): male, ICR, mouse, po, mice plasma; for F: mice
Description: 3. Pharmacokinetic Test in Mice
1.1 Experimental animal: male ICR mice, 25-30 g, 6 mice/compound, purchased from Chengdu Ddossy Experimental Animals Co., Ltd.
1.2 Experimental design: on the day of the experiment, the ICR mice were randomly grouped according to their body weights. The animals were fasted but with water available for 12 to 14 h one day before the administration, and were fed 4 h after the administration.

[2] = molecular target: T1, Bcl6 (Homo sapiens (Human), UniProt P41182); assay: Bcl-6 protein degradation experiment in OCI-LY1 cells; type: cell-based; conditions: 24 hours
Description: 4. Bcl-6 Protein Degradation Experiment in OCI-LY1 Cells
(§1) OCI-LY1 cells purchased from DSMZ were placed in an IMDM complete medium (containing 10% fetal bovine serum, 100 U/mL penicillin, 100 μg/mL streptomycin and 50 µM mercaptoethanol) and cultured at 37° C. and 5% CO2. The cells in the logarithmic growth phase were collected, and the cell suspension was adjusted to an appropriate density with the culture medium and added to a 6-well cell culture plate at a volume of 1 mL/well. The compounds to be tested were prepared to 2-fold the final concentration, 1 mL of the compounds at different concentrations were added to administration wells, a medium containing 0.2% DMSO was added to control wells, and the plate was incubated at 37° C. for 24 hours. The cells were collected into a 1.5 mL centrifuge tube, 25 L of RIPA lysis buffer (containing 1× protease inhibitor cocktail) was added, and the cells were lysed on ice for 15 minutes and centrifuged at 12000 rpm/min at 4° C. for 10 minutes. The supernatant was collected and the protein content was determined using the BCA method. The protein sample to be tested was diluted to 0.8 mg/mL, Bcl6 was detected using a fully automated protein expression quantitative analyzer (ProteinSimple), and the internal reference protein was R-actin (both antibodies were from CST). The software (Compass for SW) of the fully automated protein expression quantitative analyzer was used to process the raw data and calculate the peak area and the Bcl6 expression rate relative to the control group. DC50 values were calculated using a four-parameter non-linear fitting model in Graphpad 8.3.0 software.

[3] = molecular target: T1, Bcl6; assay: Bcl-6 protein degradation experiment in Farage cells; type: cell-based; conditions: 24 hours
Description: 2. Bcl-6 Protein Degradation Experiment in Farage Cells
as §1, with “Farage cells” for “OCI-LY1 cells”, “from ATCC” for “from DSMZ”, “an RPMI-1640” for “an IMDM”, “U/mL penicillin and” for “U/mL penicillin,”, “μg/mL streptomycin)” for “μg/mL streptomycin and 50 µM mercaptoethanol)”, “25 μL” for “25 L”

[4] = molecular target: hERG potassium ion channel (Homo sapiens (Human), UniProt Q12809); assay: Test for hERG potassium ion channel (manual patch-clamp, CHO cells); type: cell-based; conditions: CHO cells stably expressing hERG, whole cell patch-clamp; read-out: IC50 of inhibitory effects on hERG potassium channel current
hERG potassium ion channel, sequence (Q12809 whole entry): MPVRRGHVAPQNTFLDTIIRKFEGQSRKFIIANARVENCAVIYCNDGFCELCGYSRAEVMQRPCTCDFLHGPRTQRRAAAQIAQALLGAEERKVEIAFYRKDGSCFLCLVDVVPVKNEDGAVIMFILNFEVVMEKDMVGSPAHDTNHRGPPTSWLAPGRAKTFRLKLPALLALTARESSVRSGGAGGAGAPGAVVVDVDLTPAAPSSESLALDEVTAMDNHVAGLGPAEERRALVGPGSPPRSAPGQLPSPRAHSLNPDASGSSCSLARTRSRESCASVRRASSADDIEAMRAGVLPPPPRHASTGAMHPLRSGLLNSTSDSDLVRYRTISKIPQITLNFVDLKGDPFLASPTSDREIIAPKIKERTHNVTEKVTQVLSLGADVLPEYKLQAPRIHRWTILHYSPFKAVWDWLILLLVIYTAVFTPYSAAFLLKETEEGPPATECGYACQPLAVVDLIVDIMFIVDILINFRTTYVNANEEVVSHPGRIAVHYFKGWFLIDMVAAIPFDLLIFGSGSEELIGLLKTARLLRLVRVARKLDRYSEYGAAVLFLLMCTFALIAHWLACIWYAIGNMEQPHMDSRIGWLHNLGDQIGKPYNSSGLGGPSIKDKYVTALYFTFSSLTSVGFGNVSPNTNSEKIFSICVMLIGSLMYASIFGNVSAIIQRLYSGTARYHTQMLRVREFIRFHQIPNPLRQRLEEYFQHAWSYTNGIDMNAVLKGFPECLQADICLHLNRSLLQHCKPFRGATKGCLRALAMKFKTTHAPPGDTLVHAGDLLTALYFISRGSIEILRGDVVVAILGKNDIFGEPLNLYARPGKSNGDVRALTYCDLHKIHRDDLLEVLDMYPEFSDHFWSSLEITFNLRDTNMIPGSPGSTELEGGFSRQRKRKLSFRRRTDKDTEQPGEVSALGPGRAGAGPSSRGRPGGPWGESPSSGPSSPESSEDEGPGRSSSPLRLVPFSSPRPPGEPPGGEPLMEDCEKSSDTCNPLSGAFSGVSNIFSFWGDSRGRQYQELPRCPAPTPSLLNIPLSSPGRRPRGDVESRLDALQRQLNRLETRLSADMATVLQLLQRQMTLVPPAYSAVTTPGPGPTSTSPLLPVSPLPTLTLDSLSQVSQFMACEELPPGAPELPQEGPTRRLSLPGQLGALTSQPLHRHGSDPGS
Source text: 8. Test for hERG Potassium Ion Channel
Experimental platform: electrophysiological manual patch-clamp system
Cell line: Chinese hamster ovary (CHO) cell lines stably expressing hERG potassium ion channel
Experimental method: in CHO (Chinese Hamster Ovary) cells stably expressing hERG potassium channel, the whole cell patch-clamp technique was used to record hERG potassium channel current at room temperature. The glass microelectrode was made of a glass electrode blank (BF150-86-10, Sutter) by a puller. The tip resistance after filling the liquid in the electrode was about 2-5 MΩ. The glass microelectrode can be connected to the patch-clamp amplifier by inserting the glass microelectrode into an amplifier probe. The clamping voltage and data recording were controlled and recorded by the pClamp 10 software through a computer. The sampling frequency was 10 kHz, and the filtering frequency was 2 kHz. After the whole cell records were obtained, the cells were clamped at −80 mV, and the step voltage that induced the hERG potassium current (IhERG) was depolarized from −80 mV to +20 mV for 2 s, then repolarized to −50 mV, and returned to −80 mV after 1 s. This voltage stimulation was given every 10 s, and the administration process was started after the hERG potassium current was confirmed to be stable (at least 1 minute). The compound was administered for at least 1 minute at each test concentration, and at least 2 cells (n≥2) were tested at each concentration.
Data processing: data analysis processing was carried out by using pClamp 10, GraphPad Prism 5 and Excel software. The inhibition degree of hERG potassium current (peak value of hERG tail current induced at −50 mV) at different compound concentrations was calculated by the following formula: […]
where Inhibition % represents the percentage of inhibition of hERG potassium current by the compound, and I and Io represent the amplitude of hERG potassium current after and before the administration, respectively.
Compound IC50 was calculated using GraphPad Prism 5 software by fitting according to the following equation: […]
Among the equation, X represents the Log value of the tested concentration of the test sample, Y represents the inhibition percentage at the corresponding concentration, and Bottom and Top represent the minimum and maximum inhibition percentage, respectively.

[5] = Pharmacokinetic test in rats; type: in vivo, SD rats; conditions: male, SD, rat, po; rats plasma, i.g. 5 mg/kg
Description: 5. Pharmacokinetic Test in Rats
Experimental objective: in this experiment, a single dose of each test compound was administered to SD rats intravenously and intragastrically, and the concentrations of the test compounds in plasma of rats were measured to evaluate the pharmacokinetic characteristics of the test compounds in rats.
Experimental animal: male SD rats, 200-220 g, 6-8 weeks old, 6 rats/compound, purchased from Chengdu Ddossy Experimental Animals Co., Ltd.
Experimental method: on the day of the experiment, the SD rats were randomly grouped according to their body weights. The animals were fasted but with water available for 12 to 14 h one day before the administration, and were fed 4 h after the administration.
Sampling: Before and after the administration, 0.1 mL of blood was taken from the orbits under isoflurane anesthesia and placed in an EDTAK2 centrifuge tube. Centrifugation was carried out at 5000 rpm at 4° C. for 10 min, and the plasma was collected.
The plasma collection time points for IV&PO groups were 0, 5 min, 15 min, 30 min, 1 h, 2 h, 4 h, 7h, and 24 h.
Before analysis and detection, all samples were stored at −60° C. The samples were analyzed quantitatively by LC-MS/MS. PGP-3212J

Structure (SMILES) | AUC(0-t) [1] [ng·h/mL] | DC50 [2] [nM] | DC50 [3] [nM] | IC50 [4] [nM] | other results
CC(=O)COc1cc2cc(Nc3nc(N4CCC(N5CCN(c6ccc(C7CCC(=O)NC7=O)cc6)CC5)CC4)ncc3Cl)ccc2n(C)c1=O (stereo not shown) [Compound 15] | > 1000 | < 100 | – | – | –
CNC(=O)COc1cc2cc(Nc3nc(N4CCC(N5CCN(c6ccc(C7CCC(=O)NC7=O)cc6)CC5)CC4)ncc3Cl)ccc2n(C)c1=O (stereo not shown) [Compound 16] | – | < 100 | – | – | –
CC(=O)COc1cc2cc(Nc3nc(N4CCC(C5CCN(c6ccc(C7CCC(=O)NC7=O)cc6)CC5)CC4)ncc3Cl)ccc2n(C)c1=O (stereo not shown) [Compound 18] | – | < 100 | – | – | –
CNC(=O)COc1cc2cc(Nc3nc(N4CCN(CC5CCN(c6ccc(C7CCC(=O)NC7=O)c(F)c6)CC5)CC4)ncc3Cl)ccc2n(C)c1=O (stereo not shown) [Trifluoroacetate of compound 24] | > 1000 | < 100 | < 10 | – | F [1]: >50%; DC50 ([2]; listed as trifluoroacetate of compound 24): < 5 nM
CNC(=O)COc1cc2cc(Nc3nc(N4CCC(CN5CCN6c7cc(F)c(C8CCC(=O)NC8=O)cc7CC[C@H]6C5)CC4)ncc3Cl)ccc2n(C(C)C)c1=O (stereo partly shown) [Trifluoroacetate of compound 57] | > 1000 | < 100 | < 10 | – | DC50 ([2]; listed as trifluoroacetate of compound 57): < 5 nM
CNC(=O)COc1cc2cc(Nc3nc(N4CCC(O[C@H]5C[C@H](N6CCN7c8cc(F)c(C9CCC(=O)NC9=O)cc8CC[C@H]7C6)C5)CC4)ncc3Cl)ccc2n(C(C)C)c1=O (stereo partly shown) [Trifluoroacetate of compound 58] | > 1000 | < 100 | < 10 | – | F [1]: >50%; DC50 ([2]; listed as trifluoroacetate of compound 58): < 5 nM
[2H]C([2H])([2H])n1c(=O)c(OCC(=O)NC)cc2cc(Nc3nc(N4CCC(CN5CCN6c7cc(F)c(C8CCC(=O)NC8=O)cc7CC[C@@H]6C5)CC4)ncc3Cl)ccc21 (stereo partly shown) [Trifluoroacetate of compound 62] | > 1000 | – | < 10 | – | F [1]: >50%
[2H]C([2H])([2H])NC(=O)COc1cc2cc(Nc3nc(N4CCC(CN5CCN6c7cc(F)c(C8CCC(=O)NC8=O)cc7CC[C@@H]6C5)CC4)ncc3Cl)ccc2n(C([2H])([2H])[2H])c1=O (stereo partly shown) [Trifluoroacetate of compound 63] | > 1000 | – | < 10 | – | –
[2H]C([2H])([2H])NC(=O)COc1cc2cc(Nc3nc(N4CCC(CN5CCN6c7cc(F)c(C8CCC(=O)NC8=O)cc7CC[C@@H]6C5)CC4)ncc3Cl)ccc2n(C)c1=O (stereo partly shown) [Trifluoroacetate of compound 64] | > 1000 | – | < 10 | – | –
[2H]C([2H])([2H])n1c(=O)c(OCC(=O)NC)cc2cc(Nc3nc(N4CCC(CN5CCN6c7cc(F)c(C8CCC(=O)NC8=O)cc7CC[C@H]6C5)CC4)ncc3Cl)ccc21 (stereo partly shown) [Trifluoroacetate of compound 65] | > 1000 | – | < 10 | – | –
[2H]C([2H])([2H])NC(=O)COc1cc2cc(Nc3nc(N4CCC(CN5CCN6c7cc(F)c(C8CCC(=O)NC8=O)cc7CC[C@H]6C5)CC4)ncc3Cl)ccc2n(C([2H])([2H])[2H])c1=O (stereo partly shown) [Trifluoroacetate of compound 66] | > 1000 | – | < 10 | – | F [1]: >50%
[2H]C([2H])([2H])NC(=O)COc1cc2cc(Nc3nc(N4CCC(CN5CCN6c7cc(F)c(C8CCC(=O)NC8=O)cc7CC[C@H]6C5)CC4)ncc3Cl)ccc2n(C)c1=O (stereo partly shown) [Trifluoroacetate of compound 67] | > 1000 | – | < 10 | > 40000 | F [1]: >50%
[2H]C([2H])([2H])NC(=O)COc1cc2cc(Nc3nc(N4CCC(O[C@H]5C[C@H](N6CCN7c8cc(F)c(C9CCC(=O)NC9=O)cc8CC[C@H]7C6)C5)CC4)ncc3Cl)ccc2n(C([2H])([2H])[2H])c1=O (stereo partly shown) [Trifluoroacetate of compound 71] | – | – | < 10 | > 40000 | AUC(0-t) [5]: > 1000 ng·h/mL
[2H]C([2H])([2H])NC(=O)COc1cc2cc(Nc3nc(N4CCC(O[C@H]5C[C@H](N6CCN7c8cc(F)c(C9CCC(=O)NC9=O)cc8CC[C@H]7C6)C5)CC4)ncc3Cl)ccc2n(C)c1=O (stereo partly shown) [Trifluoroacetate of compound 72] | – | – | < 10 | > 40000 | AUC(0-t) [5]: > 1000 ng·h/mL
[2H]C([2H])([2H])n1c(=O)c(OCC(=O)NC)cc2cc(Nc3nc(N4CCC(O[C@H]5C[C@H](N6CCN7c8cc(F)c(C9CCC(=O)NC9=O)cc8CC[C@H]7C6)C5)CC4)ncc3Cl)ccc21 (stereo partly shown) [Trifluoroacetate of compound 73] | – | – | < 10 | > 40000 | AUC(0-t) [5]: > 1000 ng·h/mL
CCn1c(=O)c(OCC(=O)NC)cc2cc(Nc3nc(N4CCC(O[C@H]5C[C@H](N6CCN7c8cc(F)c(C9CCC(=O)NC9=O)cc8CC[C@@H]7C6)C5)CC4)ncc3Cl)ccc21 (stereo partly shown) [Trifluoroacetate of compound 74] | – | – | < 10 | – | AUC(0-t) [5]: > 1000 ng·h/mL
CNC(=O)COc1cc2cc(Nc3nc(N4CCC(CN5CCn6c(nc7cc(F)c(C8CCC(=O)NC8=O)cc76)C5)CC4)ncc3Cl)ccc2n(C(C)C)c1=O (stereo not shown) [Trifluoroacetate of compound 75] | – | – | < 10 | > 40000 | –
CNC(=O)COc1cc2cc(Nc3nc(N4CCC(CN5CCn6c(cc7cc(C8CCC(=O)NC8=O)c(F)cc76)C5)CC4)ncc3Cl)ccc2n(C(C)C)c1=O (stereo not shown) [Trifluoroacetate of compound 77] | – | – | < 10 | > 40000 | –

Source: US20250333410A1, “COMPOUND FOR INHIBITING OR DEGRADING BCL6 AND USE THEREOF IN PHARMACEUTICS” (XIZANG HAISCO PHARMACEUTICAL CO., LTD., priority 2022, published 2025)
